Assay results: patent publication US4925835A, “Aziridinyl putrescine containing compositions and their uses in treating prostate cancer” (priority 1987, dated 1990)
Where two headings read alike, the source gives them in different places.

Tests used:
[1] = test system: human prostate cancer cell line PC-3; assay: cells; assay type: cell-based
Description: Aziridinyl putrescine 1-(4-aminobutyl) aziridine was synthesized using the method as described by Piper, et al., J. Med. Chem. 12: 236-243 (1968). Cells of the human prostate cancer cell line PC-3 were used.
10^3 PC-3 human cells were plated in RPMI 1640 with 10% FCS/3 ml in 60 mm^2 petri dishes. The cell plates were incubated either with, or without difluoromethylornithine for 48 hours. This was followed by aspiration, and replacement with a medium containing either no additives, 50 uM 1-(4-aminobutyl) aziridine, 1 mM putrescine, or both 50 uM 1-(4-aminobutyl) aziridine and 1 mM putrescine. The media were aspirated after 1 hour, and replaced with a drug free medium. Incubation continued for 5 days.
*Represents mean number of colonies ± one standard deviation of
triplicate assay. Number in parenthesis is percent of control.

PC-3 cells = assay: Polyamine assays: intracellular polyamine levels by HPLC; assay type: cell-based, human; settings: PC-3, ±1 mM DFMO 48 h, then ±25 μM AZP 1 h
Description: One h later the medium was aspirated and the cells were rinsed with cold HBSS. Three plates were treated with dilute trypsin to release the cells from the plate and provide a single cell suspension. The viability of the cells and the number of cells per plate were determined by trypan blue exclusion and counting with the aid of a hemocytometer. […] The other three plates were extracted with 0.4N perchloric acid and the polyamines were measured by fluorescence following postcolumn derivatization with o-phthalaldehyde following separation by the reverse phase ion-pair high performance liquid chromatography procedure of Wagner et al., J. Chomatogr., 227: 349-368, 1982.
In Table 2 are listed the values for the triplicate assays of the concentrations of polyamine observed in nontreated cells, cells treated with 1-(4-aminobutyl) aziridine for 1 h, cells pretreated for 48 h with 1 mM difluoromethylornithine and then incubated in drug free medium for 1 h, or cells pretreated for 48 h with difluoromethylornithine, rinsed free of difluoromethylornithine, and then incubated with 25 μM 1-(4-aminobutyl)aziridine for 1 h. All groups had cell viabilities greater than 95% and cell numbers were 4.9±0.6 (SE), 4.9±0.7, 4.8±0.4, and 4.6±0.4×10^6 cells for the control, 1-(4-aminobutyl) aziridine, difluoromethylornithine, and difluoromethylornithine+1-(4-aminobutyl) aziridine groups, respectively. The apparent amount of 1-(4-aminobutyl) aziridine in the difluoromethylornithine-treated cells was 3.7 times that of the 1-(4-aminobutyl) aziridine-only-treated cells. No N^8 -acetylspermidine, acetylputrescine, or cadaverine was detected in any group. A peak was detected at a wavelength of 254 nm in the difluoromethylornithine treatment groups that corresponds to the retention time of decarboxylated S-adenosylmethionine.
^a PC-3 cells were incubated with or without 1 mM DFMO for 48 h. Cell
were then rinsed free of DFMO and incubated for 1 h with 25 μM AZP. Th
cells were washed free of AZP by three rinses of HBSS. With one set of
triplicate plates, the cells were resuspended and counted by hemocytomete
and viability was determined by trypan dye exclusion (viability > 95%).
Another set triplicate plates was extracted with icecold perchloric acid
and filtered and the polyamine concentrations were determined by HPLC.
^b Mean ± SE for a triplicate assay. Histamine is included as a […]

normal rat prostate = assay: In vivo antiprostatic activity, prostate wet weight; settings: Copenhagen rats, 14 days; AZP 2 mg/kg/day by intraperitoneal infusion mini-pump, DFMO similar amount orally
Description: 1-(4-aminobutyl) aziridine, difluoromethylornithine, and a combination of 1-(4-aminobutyl) aziridine and difluoromethylornithine were tested in vivo for antiprostatic activity using Copenhagen rats. The normal rat prostate is often used as a model or control for drugs which are suspected of having antiprostatic cancer activity. Sloan, et al., Cancer Chemother. Rep. 59: 185-194 (1975). 1-(4-aminobutyl) aziridine, difluoromethylornithine, and a combination of 1-(4-aminobutyl) aziridine and difluoromethylornithine were administered to twenty-eight (28) Copenhagen rats for 14 days. 1-(4-aminobutyl) aziridine was administered by an infusion mini-pump implanted intraperitoneally.
Difluoromethylornithine was administered orally. The 1-(4-aminobutyl) aziridine was delivered at a rate of 2 mg/kg/day. A similar amount of difluoromethylornithine was administered orally on a daily basis. Before loading the infusion pump, the pH of 1-(4-aminobutyl) aziridine was adjusted to 7.5 with hydrochloric acid. The pump rate was 0.5 u./hr.
The prostates of the twenty-eight (28) subjects were removed, freed of fat and weighed to the nearest milligram.

[2] = test system: PC-3 human prostatic carcinoma cell line; assay: cells; assay type: cell-based
Description: FIG. 3. Effect of AZP on the growth of PC-3 cells with or without DFMO pretreatment. PC-3 cells (3×10^4) were plated in 60-mm^2 Petri dish in RPMI 1640-10% FCS and allowed to attach overnight. The following day the medium was aspirated and replaced with RPMI 1640, 10% FCS, 100 μM aminoguanidine with or without 1 mm DFMO. Forty-eight h later the medium was aspirated, the dishes were rinsed once with HBSS, and the cells were incubated with RPMI 1640-10% FCS-100 μM aminoguanidine with or without 25 μM AZP for 1 h. Following the 1-h incubation the medium was aspirated, the plates were rinsed twice with HBSS, and the incubation was continued with fresh RPMI 1640-10% FCS-100 μM aminoguanidine. At the indicated times following initial plating the cells were lifted from the plate by trypsinization and were examined for their ability to exclude trypan blue. Total cell counts were obtained with the aid of a hemocytometer, and the completeness of the removal of the cells from the dish was verified by the examination of each dish with the inverted microscope. , control; Δ, DFMO; .circle., AZP; .quadrature., DFMO+AZP. Points, means; bars, SE.
FIG. 4. Dose-effect relationship of AZP on the growth on PC-3 prostatic cancer cells. PC-3 cells (3×10^4) were plated in RPMI 1640-10% FCS in 60-mm^2 Petri dishes and allowed to attach overnight. The following day the medium was aspirated and replaced with RPMI 1640-10% FCS-100 μM aminoguanidine with or without 1 mm DFMO. Forty-eight h later the medium was aspirated, and the cells were rinsed once with HBSS and replaced with RPMI 1640-10% FCS-100 μM aminoguanidine with or without the indicated μM concentrations of AZP. After a 1-h incubation the medium was aspirated, the cells were rinsed twice with HBSS, and the incubation was continued with fresh RPMI 1640-10% FCS-100 μM aminoguanidine. Eight days following plating the cells were lifted from the plates by trypsinization and were counted with the aid of a hemocytometer and expressed as a percentage of control (100% without DFMO, 212±31×10^4; 100% with DFMO pretreatment, 219±25× 10^4 cells, respectively). , DFMO pretreated; .circle., without DFMO.
Assays of cell growth were performed by plating 3×10^4 PC-3 cells in RPMI 1640 medium with 10% FCS and allowing them to attach overnight. The following morning the medium was replaced with incubation medium consisting of RPMI 1640, 10% FCS, 100 μM aminoguanidine, 100 units/ml of penicillin, 100 μg/ml of streptomycin, and 2 mM glutamine, with or without 1 mM difluoromethylornithine. Two days later the medium was aspirated and replaced with or without 1-(4-aminobutyl) aziridine at the designated concentration usually for 1 h or for the designated length of time. Following the 1-h incubation, the medium of all groups was aspirated and the dishes were rinsed with HBSS and replaced with fresh incubation medium. Either daily or 8 days following plating, the Petri dishes were rinsed with HBSS and the cells were lifted from the plate by trypsinization. The dishes were examined for completeness of cell removal by examination with an inverted microscope. The cells were counted with a Zeiss microscope using a hemocytometer. Tumor cell population doubling time was determined by ploting the natural logarithm (ln) of the number of cells versus the days following plating. The slope of this line was determined using the Memorial Sloan-Kettering Cancer Center Clin computer system statistical analysis package. Doubling time (DT) was determined as ln 2/slope=DT. Statistical differences in cell number between groups were determined by Student's t statistic with the aid of the Memorial Sloan-Kettering Cancer Center Clin computer using the statistics program.
^a Thirty thousand PC3 cells were plated in 60mm^2 Petri dishes i
RPMI 164010% FCS. The next day the medium was aspirated and replaced with
RPMI 164010% FCS medium with 100 μM aminoguanidine with or without 1 m
DFMO. Fortyeight h later the medium was aspirated. […]

[3] = test system: uptake of [14C]putrescine into PC-3 cells; assay type: cell-based, human
Description: FIG. 1. Lineweaver-Burk plot of the uptake of [^14 C]putrescine by DFMO-pretreated cells. The ordinate is expressed as 1/pmol/15 min. The abscissa is expressed as 1 μM concentrations containing from 16 to 1.0 μM [^14 C]putrescine.
Fifty thousand PC-3 cells were plated in 12-well plates and 18 h later the incubation medium was removed and replaced with 1 ml or RPMI 1640 medium containing 25 mM 4-(2-hydroxyethyl)-1-piperazineethansulfonic acid buffer, 100 μM aminoguanidine, and 10% FCS. Forty-eight h later the medium was replaced with medium which contained [^14 C]putrescine in concentrations ranging from 16 to 1.0 μM with or without 5 1M 1-(4-aminobutyl) aziridine. Following incubation at 37° C. for 15 min the [^14 C]putrescine-containing medium was aspirated, and the cells were rinsed rapidly 4 times with HBSS. Following the last rinse, 1.0 ml of a solution of 0.1N NaOH was added and after a 2-h incubation at room temperature a 0.2-ml aliquot was added to 1 ml of 2% glacial acidic acid and 10 ml of Scintiverse 1 scintillation cocktail and the radioactive disintegrations were determined with a Packard Tri-Carb 300 scintillation spectrophotometer. Counting efficiency for ^14 C was 80%. Kinetic analysis of uptake was performed by graphic methods as described by Dixon and Webb, Enzymes, p. 322, New York Academic Press (1959).
In FIG. 1 a Lineweaver-Burk plot of the uptake of [^14 C]-putrescine into the PC-3 cells is presented and was used to determine the Km (intercept x axis) and Vmax (intercept y axis) for putrescine.

[4] = PC-3, 48 h with or without DFMO, then 1 h with 50 uM AZP and/or 1 mM putrescine, 5 days drug free

Row | Structure (SMILES) | Inhibition of proliferation of human prostate cancer cells in culture ([1]; AZP at 50 uM, from Table 1) | Clonogenic survivors (mean number of colonies ± one standard deviation) [1, 4] [colonies] | Clonogenic survivors, percent of control [1, 4] [%] | Cell numbers at end of treatment (PC-3 cells; SE) | Polyamine levels: Hist (histamine, nonpolyamine control) (PC-3 cells; mean ± SE) [pmol/10^6] | Polyamine levels: NaSpm (N-acetylspermine) (PC-3 cells; mean ± SE) [pmol/10^6] | Polyamine levels: PUT (putrescine) (PC-3 cells; mean ± SE) [pmol/10^6] | Polyamine levels: Spd (spermidine) (PC-3 cells; mean ± SE) [pmol/10^6] | Polyamine levels: Spm (spermine) (PC-3 cells; mean ± SE) [pmol/10^6] | Dorsal Lateral Prostate, milligram wet weight (SEM) (normal rat prostate) [milligram] | Ventral Prostate, milligram wet weight (SEM) (normal rat prostate) [milligram] | Cells per dish on day 8 following plating ([2]; PC-3, 3×10^4 plated, ±1 mM DFMO 48 h, ±25 μM AZP 1 h, mean±SD of triplicates) | Doubling time ([2]; PC-3, 25 μM AZP 1 h or 1 mM DFMO 48 h, mean±SE) [days] | Km [3] [µM] | Vmax of putrescine uptake [3] [pmol/15 min/10^5 cells] | Vmax of putrescine uptake ([3]; PC-3 cells, without difluoromethylornithine pretreatment) [pmol/15 min/10^5 cells] | Cell no. [2] | Growth-inhibitory activity toward PC-3 cells (in words) [2] | Cell no. as a percentage of control ([2]; pc-3 cells, 11520 min) [%]
1 | NCCCC(N)(C(=O)O)C(F)F (stereo not shown) [DFMO, difluoromethylornithine, reference compound] | little effect | 549 ± 57 | 94 | 4.8±0.4 ×10^6 cells | 98 ± 26 | 130 ± 10 | 192 ± 34 | 171 ± 66 | 3046 ± 554 | 445 ± 32 | 377 ± 16 | 340±54 ×10^4 cells per dish | 1.14 ± 0.05 |  |  |  |  |  | 
2 | NCCCCN [PUT, 1,4-butanediamine, reference compound] |  |  |  |  |  |  |  |  |  |  |  |  |  | 2.5 | 190 | 40 | 438 ± 16 × 10^-4 | no growth-inhibitory activity | 106
